Test results reported in PubChem BioAssay (NCI).
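Five concentrations, 48 hours, 96-well plates. GI50 is the concentration that inhibits growth by half. TGI: total growth inhibition.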

Columns and labels:
Assay in all cases: NCI anticancer screen, dose series, 48 h
SF-268 CNS = tested on: SF-268 CNS
A498 renal = tested on: A498 renal
EKVX NSCLC = tested on: EKVX NSCLC
SK-MEL-28 melanoma = tested on: SK-MEL-28 melanoma
SR leukemia = tested on: SR leukemia
MDA-MB-435 = tested on: MDA-MB-435
SF-539 CNS = tested on: SF-539 CNS
SK-OV-3 ovarian = tested on: SK-OV-3 ovarian
OVCAR-4 ovarian = tested on: OVCAR-4 ovarian
NCI/ADR-RES ovarian = tested on: NCI/ADR-RES ovarian
OVCAR-8 ovarian = tested on: OVCAR-8 ovarian
HOP-62 NSCLC = tested on: HOP-62 NSCLC
NCI-H23 lung = tested on: NCI-H23 lung
IGROV1 ovarian = tested on: IGROV1 ovarian
SNB-19 CNS = tested on: SNB-19 CNS
SF-295 CNS = tested on: SF-295 CNS
K-562 leukemia = tested on: K-562 leukemia
NCI-H460 lung = tested on: NCI-H460 lung
COLO 205 colon = tested on: COLO 205 colon
UACC-62 melanoma = tested on: UACC-62 melanoma
HS 578T breast = tested on: HS 578T breast
HCT-116 colon = tested on: HCT-116 colon
PC-3 prostate = tested on: PC-3 prostate
HCT-15 colon = tested on: HCT-15 colon
DU-145 prostate = tested on: DU-145 prostate
HL-60(TB) leukemia = tested on: HL-60(TB) leukemia
RPMI-8226 leukemia = tested on: RPMI-8226 leukemia
SK-MEL-2 melanoma = tested on: SK-MEL-2 melanoma
LOX IMVI melanoma = tested on: LOX IMVI melanoma
UO-31 renal = tested on: UO-31 renal
MCF7 breast = tested on: MCF7 breast
NCI-H226 lung = tested on: NCI-H226 lung
HT29 colon = tested on: HT29 colon
TK-10 renal = tested on: TK-10 renal
MOLT-4 leukemia = tested on: MOLT-4 leukemia
SK-MEL-5 melanoma = tested on: SK-MEL-5 melanoma
SNB-75 CNS = tested on: SNB-75 CNS
RXF 393 renal = tested on: RXF 393 renal
M14 melanoma = tested on: M14 melanoma
HOP-92 NSCLC = tested on: HOP-92 NSCLC
CCRF-CEM leukemia = tested on: CCRF-CEM leukemia
U251 CNS = tested on: U251 CNS
ACHN renal = tested on: ACHN renal
T-47D breast = tested on: T-47D breast
CAKI-1 renal = tested on: CAKI-1 renal
UACC-257 melanoma = tested on: UACC-257 melanoma
HCC-2998 colon = tested on: HCC-2998 colon
KM12 colon = tested on: KM12 colon
786-0 renal = tested on: 786-0 renal
BT-549 breast = tested on: BT-549 breast
SW-620 colon = tested on: SW-620 colon
MDA-MB-231 breast = tested on: MDA-MB-231 breast
MALME-3M melanoma = tested on: MALME-3M melanoma
OVCAR-5 ovarian = tested on: OVCAR-5 ovarian
OVCAR-3 ovarian = tested on: OVCAR-3 ovarian
A549 NSCLC = tested on: A549 NSCLC
SN12C renal = tested on: SN12C renal
NCI-H522 lung = tested on: NCI-H522 lung

Cc1nc2cn3c(c2c(=O)[nH]1)CCCCC3
TGI (SF-268 CNS): > 100 µM | TGI (A498 renal): > 100 µM | TGI (EKVX NSCLC): > 100 µM | TGI (SK-MEL-28 melanoma): > 100 µM | TGI (SR leukemia): > 100 µM | TGI (MDA-MB-435): > 100 µM | TGI (SF-539 CNS): > 100 µM | TGI (SK-OV-3 ovarian): > 100 µM | TGI (OVCAR-4 ovarian): > 100 µM | TGI (NCI/ADR-RES ovarian): > 100 µM | TGI (OVCAR-8 ovarian): > 100 µM | TGI (HOP-62 NSCLC): > 100 µM | TGI (NCI-H23 lung): > 100 µM | TGI (IGROV1 ovarian): > 100 µM | TGI (SNB-19 CNS): > 100 µM | TGI (SF-295 CNS): > 100 µM | TGI (K-562 leukemia): > 100 µM | TGI (NCI-H460 lung): > 100 µM | TGI (COLO 205 colon): > 100 µM | TGI (UACC-62 melanoma): > 100 µM | TGI (HS 578T breast): > 100 µM | TGI (HCT-116 colon): > 100 µM | TGI (PC-3 prostate): > 100 µM | TGI (HCT-15 colon): > 100 µM | TGI (DU-145 prostate): > 100 µM | TGI (HL-60(TB) leukemia): > 100 µM | TGI (RPMI-8226 leukemia): > 100 µM | TGI (SK-MEL-2 melanoma): > 100 µM | TGI (LOX IMVI melanoma): > 100 µM | TGI (UO-31 renal): > 100 µM | TGI (MCF7 breast): > 100 µM | TGI (NCI-H226 lung): > 100 µM | TGI (HT29 colon): > 100 µM | TGI (TK-10 renal): > 100 µM | TGI (MOLT-4 leukemia): > 100 µM | TGI (SK-MEL-5 melanoma): > 100 µM | TGI (SNB-75 CNS): > 100 µM | TGI (RXF 393 renal): > 100 µM | TGI (M14 melanoma): > 100 µM | TGI (HOP-92 NSCLC): > 100 µM | TGI (CCRF-CEM leukemia): > 100 µM | TGI (U251 CNS): > 100 µM | TGI (ACHN renal): > 100 µM | TGI (T-47D breast): > 100 µM | TGI (CAKI-1 renal): > 100 µM | TGI (UACC-257 melanoma): > 100 µM | TGI (HCC-2998 colon): > 100 µM | TGI (KM12 colon): > 100 µM | TGI (786-0 renal): > 100 µM | TGI (BT-549 breast): > 100 µM | TGI (SW-620 colon): > 100 µM | TGI (MDA-MB-231 breast): 69.7 µM

CN(C)c1ccc(C(=S)c2ccc(N(C)C)cc2)cc1
GI50 (SF-268 CNS): 10.1 µM | TGI (SF-268 CNS): > 100 µM | GI50 (A498 renal): 3.16 µM | TGI (A498 renal): 74.8 µM | GI50 (EKVX NSCLC): 16.5 µM | TGI (EKVX NSCLC): > 100 µM | GI50 (SK-MEL-28 melanoma): 7.59 µM | TGI (SK-MEL-28 melanoma): > 100 µM | GI50 (SR leukemia): 3.75 µM | TGI (SR leukemia): 92.6 µM | GI50 (SF-539 CNS): 7.1 µM | TGI (SF-539 CNS): 56.4 µM | GI50 (MALME-3M melanoma): 5.5 µM | TGI (MALME-3M melanoma): > 100 µM | GI50 (SK-OV-3 ovarian): 10.9 µM | TGI (SK-OV-3 ovarian): > 100 µM | GI50 (OVCAR-4 ovarian): 16.9 µM | TGI (OVCAR-4 ovarian): > 100 µM | GI50 (NCI/ADR-RES ovarian): 2.4 µM | TGI (NCI/ADR-RES ovarian): 7.66 µM | GI50 (OVCAR-8 ovarian): 11.6 µM | TGI (OVCAR-8 ovarian): > 100 µM | GI50 (HOP-62 NSCLC): 5.09 µM | TGI (HOP-62 NSCLC): > 100 µM | GI50 (NCI-H23 lung): 7.28 µM | TGI (NCI-H23 lung): > 100 µM | GI50 (IGROV1 ovarian): 6.29 µM | TGI (IGROV1 ovarian): > 100 µM | GI50 (SNB-19 CNS): 6.16 µM | TGI (SNB-19 CNS): > 100 µM | GI50 (SF-295 CNS): 4.73 µM | TGI (SF-295 CNS): > 100 µM | GI50 (K-562 leukemia): 3.61 µM | TGI (K-562 leukemia): > 100 µM | GI50 (NCI-H460 lung): 3.97 µM | TGI (NCI-H460 lung): > 100 µM | GI50 (COLO 205 colon): 6.83 µM | TGI (COLO 205 colon): 59 µM | GI50 (UACC-62 melanoma): 4.47 µM | TGI (UACC-62 melanoma): > 100 µM | GI50 (HS 578T breast): 3.84 µM | TGI (HS 578T breast): > 100 µM | GI50 (OVCAR-5 ovarian): 39.1 µM | TGI (OVCAR-5 ovarian): > 100 µM | GI50 (OVCAR-3 ovarian): 3.93 µM | TGI (OVCAR-3 ovarian): > 100 µM | GI50 (HCT-116 colon): 3.71 µM | TGI (HCT-116 colon): > 100 µM | GI50 (PC-3 prostate): 22.5 µM | TGI (PC-3 prostate): > 100 µM | GI50 (HCT-15 colon): 4.27 µM | TGI (HCT-15 colon): > 100 µM | GI50 (DU-145 prostate): 20.3 µM | TGI (DU-145 prostate): > 100 µM | GI50 (HL-60(TB) leukemia): 4.17 µM | TGI (HL-60(TB) leukemia): > 100 µM | GI50 (RPMI-8226 leukemia): 9.89 µM | TGI (RPMI-8226 leukemia): > 100 µM | GI50 (SK-MEL-2 melanoma): 3.53 µM | TGI (SK-MEL-2 melanoma): 15.2 µM | GI50 (A549 NSCLC): 7.81 µM | TGI (A549 NSCLC): > 100 µM | GI50 (LOX IMVI melanoma): 5.86 µM | TGI (LOX IMVI melanoma): 88.6 µM | GI50 (UO-31 renal): 8.92 µM | TGI (UO-31 renal): > 100 µM | GI50 (MCF7 breast): 3.92 µM | TGI (MCF7 breast): > 100 µM | GI50 (NCI-H226 lung): 22.2 µM | TGI (NCI-H226 lung): > 100 µM | GI50 (HT29 colon): 3.79 µM | TGI (HT29 colon): > 100 µM | GI50 (TK-10 renal): 13.8 µM | TGI (TK-10 renal): > 100 µM | GI50 (MOLT-4 leukemia): 6.35 µM | TGI (MOLT-4 leukemia): > 100 µM | GI50 (SK-MEL-5 melanoma): 3.45 µM | TGI (SK-MEL-5 melanoma): 20.6 µM | GI50 (SN12C renal): 5.91 µM | TGI (SN12C renal): > 100 µM | GI50 (SNB-75 CNS): 5.28 µM | TGI (SNB-75 CNS): 40.2 µM | GI50 (RXF 393 renal): 4.81 µM | TGI (RXF 393 renal): 42.9 µM | GI50 (M14 melanoma): 3.33 µM | TGI (M14 melanoma): > 100 µM | GI50 (HOP-92 NSCLC): 9.01 µM | TGI (HOP-92 NSCLC): 86.8 µM | GI50 (CCRF-CEM leukemia): 6.64 µM | TGI (CCRF-CEM leukemia): > 100 µM | GI50 (U251 CNS): 6.34 µM | TGI (U251 CNS): > 100 µM | GI50 (ACHN renal): 13.4 µM | TGI (ACHN renal): > 100 µM | GI50 (T-47D breast): 6.34 µM | TGI (T-47D breast): > 100 µM | GI50 (CAKI-1 renal): 6.15 µM | TGI (CAKI-1 renal): > 100 µM | GI50 (NCI-H522 lung): 2.56 µM | TGI (NCI-H522 lung): 9.31 µM | GI50 (UACC-257 melanoma): 16.2 µM | TGI (UACC-257 melanoma): > 100 µM | GI50 (HCC-2998 colon): 9.66 µM | TGI (HCC-2998 colon): > 100 µM | GI50 (KM12 colon): 3.88 µM | TGI (KM12 colon): > 100 µM | GI50 (786-0 renal): 10.3 µM | TGI (786-0 renal): > 100 µM | GI50 (BT-549 breast): 6.76 µM | TGI (BT-549 breast): 90.1 µM | GI50 (SW-620 colon): 3.98 µM | TGI (SW-620 colon): > 100 µM | GI50 (MDA-MB-231 breast): 8 µM | TGI (MDA-MB-231 breast): > 100 µM
